In patent US12435060B2, “Acylamino bridged heterocyclic compound, and composition and application thereof” (BEIJING SCITECH-MQ PHARMACEUTICALS LIMITED, priority 2019, dated 2025):

These compounds were tested on HT29 cells (assay: Inhibition of cell necrosis (CCK8 method), induced programmed necrosis of HT29 cells). Conditions: Homo sapiens, HT-29; rescue from necrosis induced by TNF-α 20 ng/mL, AT-406 1 μM, Z-VAD-FMK 20 μM; 16-20 hours; CCK-8, OD 450 nm.
Type: cell-based
Summary of the method: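 HT29 cells in McCOY's 5A with 10% FBS were pre-treated for 30 min with compound (9 fourfold steps, 25000 to 0.38 nM final, 0.25% DMSO). Necrosis was then induced with TNF-α 20 ng/mL, AT-406 1 μM and Z-VAD-FMK 20 μM for 16-20 h. Viability was read by CCK-8 OD450, normalized between uninduced and induced wells, and IC50 was curve-fitted.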

Q: For `O=C(Nc1cc(-c2cc(OCC3CCOCC3)ccc2F)c(Cl)cn1)c1nnc(CC2CCCCC2)[nH]1` [Example 330, 5-(cyclohexylmethyl)-N-(5-chloro-4-(2-fluoro-5-((tetrahydro-2H-pyran-4-yl)methoxy)phenyl)pyridin-2-yl)-4H-1,2,4-triazole-3-carboxamide], which IC50 is on record?
A: 100 to 1000 nM

Q: For `Cc1ccc(OCCC2CCOCC2)cc1-c1cc(NC(=O)c2nnc(CC3CCCCC3)[nH]2)ncc1C` [Example 254, 5-(cyclohexylmethyl)-N-(5-methyl-4-(2-methyl-5-(2-(tetrahydro-2H-pyran-4-yl)ethoxy)phenyl)pyridin-2-yl)-4H-1,2,4-triazole-3-carboxamide], which IC50 is on record?
A: 100 to 1000 nM

Q: `Cc1ccc(OCCCCO)cc1-c1ccnc(NC(=O)c2nnc(Cc3ccccc3)[nH]2)c1` [Example 151, 5-benzyl-N-(4-(5-(4-hydroxybutoxy)-2-methylphenyl)pyridin-2-yl)-4H-1,2,4-triazole-3-carboxamide] was tested. Which IC50 did it give?
A: ≤ 100 nM

Q: Which IC50 does the source give for `CC(C)(O)CCCOc1ccc(Cl)c(-c2ccnc(NC(=O)c3nnc(Cc4c(F)ccc(F)c4F)[nH]3)c2)c1` [Example 353, N-(4-(2-chloro-5-((4-hydroxy-4-methylpentyl)oxy)phenyl)pyridin-2-yl)-5-(2,3,6-trifluorobenzyl)-4H-1,2,4-triazole-3-carboxamide] here?
A: ≤ 100 nM

Q: With `Cc1ccc(OCCCC(C)(C)O)cc1-c1ccnc(NC(=O)c2nnc(Cc3cccc(F)c3)[nH]2)c1` [Example 184, 5-(3-fluorobenzyl)-N-(4-(5-((4-hydroxy-4-methylpentyl)oxy)-2-methylphenyl)pyridin-2-yl)-4H-1,2,4-triazole-3-carboxamide] as the compound, how does the IC50 read?
A: ≤ 100 nM

Q: Which IC50 does the source give for `CC(C)(C)OCCOc1ccc(Cl)c(-c2ccnc(NC(=O)c3nnc(Cc4ccccc4F)[nH]3)c2)c1` [Example 392, 5-(2-fluorobenzyl)-N-(4-(5-(2-(tert-butoxy)ethoxy)-2-chlorophenyl)pyridin-2-yl)-4H-1,2,4-triazole-3-carboxamide] here?
A: ≤ 100 nM

Q: How did the IC50 turn out when `Cc1ccc(OCCCC(C)(C)O)cc1-c1cc(NC(=O)c2nnc(Cc3ccccc3F)[nH]2)ncc1Cl` [Example 238, N-(5-chloro-4-(5-((4-hydroxy-4-methylpentyl)oxy)-2-methylphenyl)pyridin-2-yl)-5-(2-fluorobenzyl)-4H-1,2,4-triazole-3-carboxamide] was run?
A: ≤ 100 nM

Q: `CC(C)(O)CCCCOc1ccc(Cl)c(-c2cc(NC(=O)c3nnc(CC4CCCCC4)[nH]3)ncc2Cl)c1` [Example 421, N-(5-chloro-4-(2-chloro-5-((5-hydroxyl-5-methylhexyl)oxy)phenyl)pyridin-2-yl)-5-(cyclohexylmethyl)-4H-1,2,4-triazole-3-carboxamide] was tested. Which IC50 did it give?
A: 100 to 1000 nM

Q: For `COc1ccc(Cl)c(-c2ccnc(NC(=O)c3nnc(Cc4ccccc4)[nH]3)c2)c1` [Example 13, 5-benzyl-N-(4-(2-chloro-5-methoxyphenyl)pyridin-2-yl)-4H-1,2,4-triazole-3-carboxamide], which IC50 is on record?
A: 1000 to 10000 nM

Q: With `Cc1ccc(OCCN2CCCC2=O)cc1-c1ccnc(NC(=O)c2nnc(Cc3ccccc3)[nH]2)c1` [Example 71, 5-benzyl-N-(4-(2-methyl-5-(2-(2-oxopyrrolidin-1-yl)ethoxy)phenyl)pyridin-2-yl)-4H-1,2,4-triazole-3-carboxamide] as the compound, how does the IC50 read?
A: ≤ 100 nM

Q: How did the IC50 turn out when `Cc1ccc(OCC2CCOCC2)cc1-c1cc(NC(=O)c2nnc(CC3CCCCC3)[nH]2)ncn1` [Example 444, 5-(cyclohexylmethyl)-N-(6-(2-methyl-5-((tetrahydro-2H-pyran-4-yl)methoxy)phenyl)pyrimidin-4-yl)-4H-1,2,4-triazole-3-carboxamide] was run?
A: ≤ 100 nM

Q: Which IC50 does the source give for `CCC(O)(CC)CCCOc1ccc(F)c(-c2ccnc(NC(=O)c3nnc(Cc4ccccc4F)[nH]3)c2)c1` [Example 314, N-(4-(5-((4-ethyl-4-hydroxyhexyl)oxy)-2-fluorophenyl)pyridin-2-yl)-5-(2-fluorobenzyl)-4H-1,2,4-triazole-3-carboxamide] here?
A: 100 to 1000 nM
